Results on one molecule are retold here after EP1057484A1, “CELL DEATH INHIBITORS” (priority 1998, dated 1999).

Molecules are shown by their SMILES.

Assay [1] has as its system erythrocytes. Put plainly: Test Example 13: hydrogen peroxide-induced death of erythrocytes. Format: cell-based. The note with it: Homo sapiens, Erythrocyte, 24 h, read-out: ratios of dead erythrocytes (dark ghost cells). As for the experimental part: After human blood (2 mL) was centrifuged at 1000 rpm for 5 min, the resulting cell pellets containing erythrocytes were washed three times with a DMEM medium and the cells were resuspended in the same medium (15 mL) (about 5 × 10^8 cells/mL). Ten µL of this suspension was added with 10% FCS/DMEM (10 mL), and the cells were plated in 48 well plates (500 µL/well). When hydrogen peroxide (300 µM) was added to the erythrocyte culture solution and the cells were cultured for 24 hours, all erythrocytes were dead on observations under a light microscopy (all erythrocytes were subjected to shape changes from a bright, round and concave shape into a dark hemolytic ghost through multiple shape changes). On the other hand, Test Compound 14 (30 µM), Test Compound 18 (10 µM), Test Compound 19 (20 µM) or Test Compound 20 (20 µM) was added prior to the hydrogen peroxide addition.

The test system of assay [2] is Primary cultured fibroblasts. Put plainly: Test Example 14: SNP-induced apoptosis of primary cultured fibroblasts. Format: cell-based, mice. The note with it: Mus musculus, Fibroblast; 2.5 µM added prior to SNP (0.5 mM); observation after 48 hours; read-out: cells alive. As for the experimental part: Primary cultured fibroblasts were prepared from mice according to a known method (Kinou Saibou no Bunri to Baiyou (Isolation and Culture of Functional Cells), Maruzen, 1987, p. 59). Namely, after removing skin hairs from mice with shaving foam followed by disinfection with a chlorhexidine gluconate solution, tiny skin fragments were isolated. […] After migration of fibroblasts became obvious, the slide glasses and the residual skin fragments were removed, and the culture was continued. […] In the cases that Test Compound 14 (5 µM) or Test Compound 18 (2.5 µM) was added to the present culture system prior to the SNP addition, apoptosis in both cultures was inhibited and more than 95% of cells were alive on an observation after 48 hours.

Assay [3] concerns monolayer cells derived from the mouse kidneys. Description: Test Example 15: SNP-induced apoptosis of monolayer cells derived from kidneys. Format: cell-based, mice. The note with it: 2.5 µM added prior to SNP (0.5 mM), observation after 48 hours, read-out: cells alive. As for the experimental part: Kidneys isolated from mice were dissected into minute pieces in a serum-free DMEM, which were dispersed with trypsin/EDTA treatment. After leaving it for a while, the supernatant was discarded, and the pellet was transferred to a culture plate and cultured in DMEM containing 10% fetal bovine serum in a CO2 incubator according to a conventional manner. After tissues were adhered onto a culture plate and subsequently cell colonies got formed, the tissues were removed and the colonies were subcultured in the same medium. The resulting monolayer cells derived from the mouse kidneys were morphologically different from fibroblasts. […] Then, Test Compound 14 (5 µM) or Test Compound 18 (2.5 µM) was added prior to the SNP addition and the cells were observed.

Assay [4] has as its system Porcine ovarian granulosa cells (POGC). Put plainly: Test Example 3: PGF2α-induced cell death of terminally differentiated POGC. It counts as cell-based. The note with it: Sus scrofa; 3 µM added prior to PGF2α (50 µg/mL); observation after 16 hour; read-out: survival of the cells. An excerpt: (§1) The ovarian granulosa cells are cells surrounding an ovum, and proliferate and differentiate by the action of follicle stimulating hormone (FSH) and luteinizing hormone (LH) in response to sexual cycles, during which they acquire a progesterone-producing ability. Unovulatory follicles finally undergo apoptosis and disappear. The differentiation process can be mimicked following to a known method (Endocrinology, Vol. 136, p. 3470, 1995) as shown in the following in vitro experiment. Furthermore, when they are continuously cultured with maintaining final differentiation ability, they are observed to undergo apoptosis as described below. Namely, porcine ovaries were rinsed with PBS buffer, and porcine ovarian granulosa cells (POGC) were collected by aspiration from antral follicles with a syringe. Cell fraction was recovered as a precipitate by centrifugation of the suspension. The operation of suspending the cell fraction into PBS buffer and subjecting the resulting suspension to centrifugation was repeated three times to wash the cells. […] Upon continued culture, these completely differentiated cells undergo cell death synchronously after about 5 days, the cell death being monitored by a trypan blue exclusion test and a MTT (3-(4,5-dimethylthiazol-2-yl)-2,5-diphenyltetrazolium bromide) test. […]

Assay [5] has as its system cerebellar granule cells. Put plainly: Test Example 10: hydrogen peroxide-induced death of cerebellar granule cells. It counts as cell-based, rats. The note with it: Rattus norvegicus; 10 µM; hydrogen peroxide 300 µM; observation after 16 hours; read-out: cells alive. The procedure:
According to a known method (A Dissection and Tissue Culture Manual of the Nervous System, p. 211, 1989, Alan R, Liss, Inc.), cerebellar granule cells were isolated from the cerebellum of 7 days old rats and cultured. Namely, after conducting isolation procedures described in the above literature, the resulting cells were resuspended in DMEM containing 10% fetal bovine serum, 25 mM KCl and 2 mM glutamine, and seeded in poly-lysine coated plates. After the cells were cultured in a CO2 incubator for 48 hours according to a conventional method, cytosine-1-β-D(+)-arabinofuranoside (Ara-C) (10 µM) was added thereto, and the cell was continued to culture. The following experiments were conducted with the cells of 7 to 14 days old from the start day of the culture, the cells having completed neurite extension sufficiently. […] Furthermore, experiments were conducted by increasing a concentration of hydrogen peroxide to 300 µM. In the cases that Test Compound 18 (10 µM), Test Compound 19 (10 µM), or Test Compound 20 (10 µM) were added, about 90%, 90%, and 70% of the cells were alive, respectively, on observations after 16 hours.

The subject of assay [6] is Porcine ovarian granulosa cells (POGC). Description: Test Example 2: cell death of terminally differentiated (FSH/LH) POGC on continued culture. Format: cell-based. The note with it: Sus scrofa, 168 h; 3 µM added 4 days after final medium refreshment; observation 7 days after addition; read-out: cells alive. The source says: The ovarian granulosa cells are cells surrounding an ovum, and proliferate and differentiate by the action of follicle stimulating hormone (FSH) and luteinizing hormone (LH) in response to sexual cycles, during which they acquire a progesterone-producing ability. Unovulatory follicles finally undergo apoptosis and disappear. The differentiation process can be mimicked following to a known method (Endocrinology, Vol. 136, p. 3470, 1995) as shown in the following in vitro experiment. Furthermore, when they are continuously cultured with maintaining final differentiation ability, they are observed to undergo apoptosis as described below. Namely, porcine ovaries were rinsed with PBS buffer, and porcine ovarian granulosa cells (POGC) were collected by aspiration from antral follicles with a syringe. Cell fraction was recovered as a precipitate by centrifugation of the suspension. The operation of suspending the cell fraction into PBS buffer and subjecting the resulting suspension to centrifugation was repeated three times to wash the cells. […] Upon continued culture, these completely differentiated cells undergo cell death synchronously after about 5 days, the cell death being monitored by a trypan blue exclusion test and a MTT (3-(4,5-dimethylthiazol-2-yl)-2,5-diphenyltetrazolium bromide) test.

The subject of assay [7] is POGC. Put plainly: Test Example 5: staurosporine-induced cell death of completely differentiated POGC. Format: cell-based, porcine. The note with it: Sus scrofa; 3 µM added prior to staurosporine (3 nM); observation after 68 hours; read-out: cells alive.
Source text: as §1

Assay [8] concerns undifferentiated POGC. Description: Test Example 6: hydrogen peroxide-induced cell death of undifferentiated POGC. Format: cell-based, porcine. The note with it: Sus scrofa; 3 µM added prior to hydrogen peroxide (100 µm); observation after 24 hours; read-out: cells alive.
In assay [9] the test system is POGC. Description: Test Example 4: cell death of POGC in long term serum-free, hormone-free culture. It counts as cell-based, porcine. The note with it: Sus scrofa, 168 h, observation at 7 days after the death of cells treated with no test compound, read-out: survival of the cells.
Source text: as §1

With `CN(C)CCCn1cc(C2=C(c3c[nH]c4ccccc34)C(=O)NC2=O)c2ccccc21` [Compound 18], the cytotoxicity at 10 µM in assay [1] was found to be 20%. For the same molecule, the viability at 2.5 µM in assay [2] and in assay [3] was above 95% throughout. Also, the viability at 3 µM in assay [4], in [6], in [7], in assay [8] and in assay [9] was above 95% in each case. Further, the viability at 10 µM in assay [5] was around 90%.
